The experiment deals with Transient receptor potential cation channel subfamily A member 1 (Homo sapiens, UniProt O75762). Briefly: Inhibition of cinnamaldehyde-activated full length human TRPA1 channel expressed in 293T-Rex cells monitored at 5 sec interval by manual patch clamp electrophysiological method. The experiment is classed as cell-based.

A word on the IC50: it is the concentration needed to halve the response being measured. High values mean lower potency, low ones higher potency.

Sequence of Transient receptor potential cation channel subfamily A member 1 (O75762 whole entry): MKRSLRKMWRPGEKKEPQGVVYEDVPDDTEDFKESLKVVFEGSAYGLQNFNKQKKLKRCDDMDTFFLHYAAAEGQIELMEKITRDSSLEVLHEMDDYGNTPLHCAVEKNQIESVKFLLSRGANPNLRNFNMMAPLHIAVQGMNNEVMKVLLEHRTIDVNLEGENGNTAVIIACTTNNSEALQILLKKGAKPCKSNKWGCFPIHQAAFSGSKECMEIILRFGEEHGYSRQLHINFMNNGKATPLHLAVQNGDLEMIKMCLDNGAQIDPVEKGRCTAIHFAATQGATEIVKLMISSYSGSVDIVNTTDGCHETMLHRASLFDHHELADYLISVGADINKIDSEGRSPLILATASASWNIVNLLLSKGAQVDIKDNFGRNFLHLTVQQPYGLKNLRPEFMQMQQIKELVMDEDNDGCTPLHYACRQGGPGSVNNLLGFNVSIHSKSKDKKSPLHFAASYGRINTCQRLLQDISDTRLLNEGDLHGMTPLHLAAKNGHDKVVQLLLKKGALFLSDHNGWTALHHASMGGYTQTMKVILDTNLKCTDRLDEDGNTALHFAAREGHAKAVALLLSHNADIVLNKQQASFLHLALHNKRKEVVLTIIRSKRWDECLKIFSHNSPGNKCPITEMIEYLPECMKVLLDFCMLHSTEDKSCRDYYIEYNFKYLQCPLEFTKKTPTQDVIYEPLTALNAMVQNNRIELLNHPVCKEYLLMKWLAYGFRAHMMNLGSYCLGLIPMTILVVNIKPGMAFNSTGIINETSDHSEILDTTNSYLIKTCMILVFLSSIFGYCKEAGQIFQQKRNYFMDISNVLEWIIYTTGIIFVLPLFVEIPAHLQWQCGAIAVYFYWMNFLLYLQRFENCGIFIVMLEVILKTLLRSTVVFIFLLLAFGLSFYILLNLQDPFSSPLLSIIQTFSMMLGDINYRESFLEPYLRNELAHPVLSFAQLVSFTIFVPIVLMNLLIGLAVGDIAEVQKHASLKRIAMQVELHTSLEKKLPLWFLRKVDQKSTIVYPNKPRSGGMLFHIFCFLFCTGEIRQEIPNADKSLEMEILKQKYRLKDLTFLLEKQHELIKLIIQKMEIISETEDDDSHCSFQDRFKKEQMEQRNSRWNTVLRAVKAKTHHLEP

With `O=C(NCC(Cc1ccccc1)N1CCC(O)(C(F)(F)F)CC1)C1(c2ccc(F)cc2)CCCCC1` (stereo not drawn), inhibition was half-maximal at 4 nM (IC50).

`CC(C)(C(=O)NCC(Cc1ccccc1)N1CCC(O)(C(F)(F)F)CC1)c1ccccc1` (stereo not drawn) gave a half-inhibitory concentration (IC50) of 43 nM. Compared with the last molecule, the IC50 is about 11-fold higher.

`O=C(NCC(Cc1ccc(F)cc1)N1CCC(O)(C(F)(F)F)CC1)C1(c2ccc(Cl)cc2)CC1` (stereo not drawn) gave an IC50 of 2 nM. This IC50 lies about 22-fold lower than the previous one.

`O=C(NCC(Cc1ccccc1)N1CCC(C(F)(F)F)CC1)C1(c2ccc(Cl)cc2)CCCC1` (stereo not drawn): 7 nM corresponded to half-maximal inhibition (IC50).

For `O=C(NCC(Cc1ccccc1)N1CCC(O)(C(F)(F)F)CC1)C1(c2ccc(Cl)cc2)CC1` (stereo not drawn), the 50% inhibitory concentration (IC50) came out at 14 nM.

In turn, `O=C(NCC(Cc1ccccc1)N1CCC(O)(C(F)(F)F)CC1)C1(c2ccc(Cl)cc2)CCCC1` (stereo not drawn) came in with a 50% inhibitory concentration (IC50) of 1 nM.

`O=C(NCC(Cc1ccc(Br)cc1)N1CCC(O)(C(F)(F)F)CC1)C1(c2ccc(Cl)cc2)CCCC1` (stereo not drawn) registered a half-maximal inhibitory concentration (IC50) of 12 nM.

`N#Cc1ccc(CC(CNC(=O)C2(c3ccc(Cl)cc3)CCCC2)N2CCC(O)(C(F)(F)F)CC2)cc1` (stereo not drawn) displayed an IC50 of 63 nM. This IC50 lies about 5.2-fold higher than the previous one.

Source of the values: ChEMBL document CHEMBL3856226, “N-(2-Alkyleneimino-3-phenylpropyl)acetamide Compounds and Their Use against Pain and Pruritus via Inhibition of TRPA1 Channels” (ACS Med Chem Lett, 2016).
